Experimental data from patent US20260234115A1, “LIPID COMPOUNDS, COMPOSITIONS, AND USES THEREOF” (Liberate Bio, Inc., priority 2023, published 2026).
Marks after values point to notes of the source that are not given here.

What was measured:
[1] = Dynamic light scattering: LNP particle size and PDI; assay type: physicochemical; conditions: for PDI N/P:6 / Size (nm) N/P:6 / PDI N/P:3 / Size (nm) N/P:3: LNP
Procedure: (§1) Lipids and active ingredients (e.g., RNA, DNA, etc.) were assembled into LNPs using microfluidic mixing. An ethanol phase was prepared by solubilizing ionizable lipids (i.e., lipid compounds), phospholipids (e.g., DSPC), cholesterol, and PEG lipids in ethanol, at predetermined mol % ratios given in Table 2. An aqueous phase was prepared by diluting a nucleic acid cargo (e.g., firefly luciferase mRNA) in an acidified buffer (pH 4.0 citrate buffer, 50 mM). A chip with microfluidic mixing architecture (e.g., toroidal mixer) was used to mix the two phases at predetermined flow rate ratios (e.g., 9 ml/min for the aqueous phase and 3 ml/min for the ethanol phase). Resulting LNPs comprising the lipids and encapsulating the nucleic acid cargo were dialyzed against PBS pH 7.4 for 2 hours at room temperature in a 20 kDa MWCO dialysis membrane. Then, PBS was refreshed to continue dialysis overnight at 2-8 TC. Upon completion of the buffer exchange, LNPs were optionally concentrated using a ultracentrifugal unit with a 10-100 kDa MWCO membrane.
d. Dynamic Light Scattering
LNPs were diluted with PBS pH 7.4 to predetermined dilution ranges based on the process step and LNP concentration. Following mixing, the particle size and PDI were measured by a dynamic light scattering instrument.

[2] = Plate-based fluorescence (RiboGreen) assay: nucleic acid cargo content and encapsulation efficiency of LNPs; assay type: physicochemical; conditions: for EE (%) N/P:6 / EE (%) N/P:3: LNP
Procedure: as §1
c. Plate-Based Fluorescence (RiboGreen) Assay
Nucleic acid cargos in the LNPs were quantified by RiboGreen assay, against a nucleic acid standard curve. LNPs encapsulating nucleic acid cargo were mixed with 1× Tris-EDTA (TE) and 2% triton in TE, separately, to achieve dilutions required by the assay. Then, the samples were heated at 30° C. and vortexed at 300 rpm. Samples were plated into 96-well plates and RiboGreen reagent was added into each well. Following incubation in the dark, fluorescence was measured from the wells, and plotted against the standard curve. Nucleic acid concentration obtained from the Triton-treated samples were used for total cargo concentration quantification. Only TE diluted sample fluorescence values were used to determine the non-encapsulated (free) cargo, and their ratio was used to determine the encapsulation efficiency (EE %).

mouse organs = assay: In vivo activity screening in mice: organ mean total flux (p/s) of luciferase activity after injection of F2 LNP pools (Table 6, FIG. 7A-7C); conditions: luciferase mRNA
Method in brief: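 C57BL/6J mice given one tail-vein injection of pooled Formulation F2 LNPs carrying firefly luciferase mRNA (0.25-3 mg/kg) in PBS. At 4-6 h, s.c. D-luciferin given; organs imaged ex vivo by IVIS within 10-15 min, after saline cardiac perfusion. Mean total flux (p/s) per organ ROI.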

[3] = LNP compositions for Formulation F2 Study
[4] = LNP compositions for in vivo mouse study, four formulations (F1-F4) of the lipid compound pooled, or pools of four compounds (sixteen compositions)
[5] = LNP compositions for in vivo mouse study, four formulations (F1-F4) pooled, or pools of four compounds

| SMILES | Particle Size (nm) [1, 4] [nm] | PDI [1, 5] | PDI N/P:6 ([1]; Formulation F1, N/P 6) | Size (nm) N/P:6 ([1]; Formulation F1, N/P 6) [nm] | PDI N/P:6 ([1]; Formulation F2, N/P 6) | Size (nm) N/P:6 ([1]; Formulation F2, N/P 6) [nm] | PDI N/P:6 ([1]; Formulation F3, N/P 6) | Size (nm) N/P:6 ([1]; Formulation F3, N/P 6) [nm] | PDI N/P:6 ([1]; Formulation F4, N/P 6) | Size (nm) N/P:6 ([1]; Formulation F4, N/P 6) [nm] | EE % [2, 5] [%] | mRNA Content [2, 5] [µg/mL] | EE (%) N/P:6 ([2]; Formulation F1, N/P 6) [%] | EE (%) N/P:6 ([2]; Formulation F2, N/P 6) [%] | EE (%) N/P:6 ([2]; Formulation F3, N/P 6) [%] | EE (%) N/P:6 ([2]; Formulation F4, N/P 6) [%] | Organ Mean Total Flux Femur (mouse organs; Mouse 1, dose 0.3 mg/kg) | Organ Mean Total Flux Heart (mouse organs; Mouse 1, dose 0.3 mg/kg) | Organ Mean Total Flux Kidney (mouse organs; Mouse 1, dose 0.3 mg/kg) | Organ Mean Total Flux Liver (mouse organs; Mouse 1, dose 0.3 mg/kg) | also measured |
| --- | --- | --- | --- | --- | --- | --- | --- | --- | --- | --- | --- | --- | --- | --- | --- | --- | --- | --- | --- | --- | --- |
| CCCCC/C=C\CCOC(=O)CCCCCC(=O)OCC(COC(=O)CCCCCC(=O)OCC/C=C\CCCCC)(COC(=O)CCCCCC(=O)OCC/C=C\CCCCC)COC(=O)CCC(CCCCCC)OC(=O)NCCN1CCCC1 (centres unmarked) [Compound 7, O7-[2,2-bis[[7-[(Z)-non-3-enoxy]-7-oxo-heptanoyl]oxymethyl]-3-[4-(2-pyrrolidin-1-ylethylcarbamoyloxy)decanoyloxy]propyl]O1-[(Z)-non-3-enyl]heptanedioate] | 89.3 | 0.14 | 0.08 | 75 ± 1 | 0.11 | 97 ± 5 | 0.09 | 99 ± 2 | 0.21 | 75 ± 3 | 96 | 84 | 99 | 97 | 98 | 98 | 2.4 p/s (×10^6) | 0.2 p/s (×10^6) | 0.7 p/s (×10^6) | 140.0 p/s (×10^6) | PDI [1, 3]: 0.086; Particle Size (nm) [1, 3]: 120.8 nm; EE % [2, 3]: 98%; Organ Mean Total Flux Lung (mouse organs; Mouse 1, dose 0.3 mg/kg): 4.9 p/s (×10^6); Organ Mean Total Flux Muscle (mouse organs; Mouse 1, dose 0.3 mg/kg): 2.5 p/s (×10^6); Organ Mean Total Flux Pancreas (mouse organs; Mouse 1, dose 0.3 mg/kg): 1.8 p/s (×10^6); Organ Mean Total Flux Spleen (mouse organs; Mouse 1, dose 0.3 mg/kg): 29.0 p/s (×10^6); Organ Mean Total Flux Femur (mouse organs; Mouse 14, dose 0.5 mg/kg): 5.7 p/s (×10^6); Organ Mean Total Flux Heart (mouse organs; Mouse 14, dose 0.5 mg/kg): 0.9 p/s (×10^6); Organ Mean Total Flux Kidney (mouse organs; Mouse 14, dose 0.5 mg/kg): 3.2 p/s (×10^6); Organ Mean Total Flux Liver (mouse organs; Mouse 14, dose 0.5 mg/kg): 338.0 p/s (×10^6); Organ Mean Total Flux Lung (mouse organs; Mouse 14, dose 0.5 mg/kg): 14.5 p/s (×10^6); Organ Mean Total Flux Muscle (mouse organs; Mouse 14, dose 0.5 mg/kg): 48.2 p/s (×10^6); Organ Mean Total Flux Pancreas (mouse organs; Mouse 14, dose 0.5 mg/kg): 1.5 p/s (×10^6); Organ Mean Total Flux Spleen (mouse organs; Mouse 14, dose 0.5 mg/kg): 11.8 p/s (×10^6) |
| CCCCC/C=C\CCOC(=O)CCCCCCC(=O)OCC(COC(=O)CCCCCCC(=O)OCC/C=C\CCCCC)(COC(=O)CCC(CCCCCC)OC(=O)NCCN1CCCC1)COC(=O)CC12CC3CC(CC(C3)C1)C2 (centres unmarked) [Compound 11, O8-[2-[[2-(1-adamantyl)acetyl]oxymethyl]-2-[[8-[(Z)-non-3-enoxy]-8-oxo-octanoyl]oxymethyl]-3-[4-(2-pyrrolidin-1-ylethylcarbamoyloxy)decanoyloxy]propyl]O1-[(Z)-non-3-enyl]octanedioate] | 86 | 0.13 | 0.16 | 77 ± 7 | 0.11 | 88 ± 3 | 0.14 | 91 ± 1 | 0.30 | 74 ± 2 | 97 | 105 | 100 | 100 | 97 | 99 | 5.3 p/s (×10^6) | 2.3 p/s (×10^6) | 2.4 p/s (×10^6) | 5140 p/s (×10^6) | Organ Mean Total Flux Lung (mouse organs; Mouse 1, dose 0.3 mg/kg): 27.7 p/s (×10^6); Organ Mean Total Flux Muscle (mouse organs; Mouse 1, dose 0.3 mg/kg): 21.8 p/s (×10^6); Organ Mean Total Flux Pancreas (mouse organs; Mouse 1, dose 0.3 mg/kg): 6.0 p/s (×10^6); Organ Mean Total Flux Spleen (mouse organs; Mouse 1, dose 0.3 mg/kg): 32.3 p/s (×10^6) |
| CCCCC/C=C\C/C=C\CCCCCCCC(=O)OCC(COC(=O)CCCCCCC/C=C\C/C=C\CCCCC)(COC(=O)CCC(CCCCCC)OC(=O)NCCN1CCCC1)COC(=O)CCC(OCCCCCCCC)OCCCCCCCC (centres unmarked) [Compound 6, [2-(4,4-dioctoxybutanoyloxymethyl)-2-[[(9Z,12Z)-octadeca-9,12-dienoyl]oxymethyl]-3-[4-(2-pyrrolidin-1-ylethylcarbamoyloxy)decanoyloxy]propyl](9Z,12Z)-octadeca-9,12-dienoate] | 77.9 | 0.107 | 0.172 | 69 ± 3 | 0.012 | 83 ± 1 | 0.078 | 85 ± 1 | 0.081 | 63 ± 1 | 99 | 100.1 | 100 | 100 | 100 | 100 | 6.1 p/s (×10^6) | 2.1 p/s (×10^6) | 1.3 p/s (×10^6) | 2966 p/s (×10^6) | PDI N/P:3 ([1]; Formulation F1, N/P 3): 0.09; Size (nm) N/P:3 ([1]; Formulation F1, N/P 3): 77 ± 2 nm; PDI N/P:3 ([1]; Formulation F2, N/P 3): 0.027; Size (nm) N/P:3 ([1]; Formulation F2, N/P 3): 89 ± 2 nm; PDI N/P:3 ([1]; Formulation F3, N/P 3): 0.059; Size (nm) N/P:3 ([1]; Formulation F3, N/P 3): 105 ± 5 nm; PDI N/P:3 ([1]; Formulation F4, N/P 3): 0.084; Size (nm) N/P:3 ([1]; Formulation F4, N/P 3): 65 ± 1 nm; EE (%) N/P:3 ([2]; Formulation F1, N/P 3): 99%; EE (%) N/P:3 ([2]; Formulation F2, N/P 3): 99%; EE (%) N/P:3 ([2]; Formulation F3, N/P 3): 95%; EE (%) N/P:3 ([2]; Formulation F4, N/P 3): 98%; Organ Mean Total Flux Lung (mouse organs; Mouse 1, dose 0.3 mg/kg): 17.6 p/s (×10^6); Organ Mean Total Flux Muscle (mouse organs; Mouse 1, dose 0.3 mg/kg): 8.3 p/s (×10^6); Organ Mean Total Flux Pancreas (mouse organs; Mouse 1, dose 0.3 mg/kg): 2.1 p/s (×10^6); Organ Mean Total Flux Spleen (mouse organs; Mouse 1, dose 0.3 mg/kg): 14.1 p/s (×10^6) |
| CCCCCCCC/C=C\CCCCCCCC(=O)OCC(COC(=O)CCCCCCC/C=C\CCCCCCCC)(COC(=O)CCC(CCCCCC)OC(=O)NCCN1CCCC1)COC(=O)CCC(OCCCCCCCC)OCCCCCCCC (centres unmarked) [Compound 4, [2-(4,4-dioctoxybutanoyloxymethyl)-2-[[(Z)-octadec-9-enoyl]oxymethyl]-3-[4-(2-pyrrolidin-1-ylethylcarbamoyloxy)decanoyloxy]propyl](Z)-octadec-9-enoate] | 93.4 | 0.022 | 0.063 | 78 ± 2 | 0.069 | 93 ± 1 | 0.08 | 108 ± 2 | 0.12 | 73 ± 2 | 99 | 99.1 | 100 | 100 | 100 | 100 | 15.6 p/s (×10^6) | 4.4 p/s (×10^6) | 0.8 p/s (×10^6) | 105.0 p/s (×10^6) | PDI N/P:3 ([1]; Formulation F1, N/P 3): 0.092; Size (nm) N/P:3 ([1]; Formulation F1, N/P 3): 86 ± 10 nm; PDI N/P:3 ([1]; Formulation F2, N/P 3): 0.041; Size (nm) N/P:3 ([1]; Formulation F2, N/P 3): 97 ± 1 nm; PDI N/P:3 ([1]; Formulation F3, N/P 3): 0.089; Size (nm) N/P:3 ([1]; Formulation F3, N/P 3): 116 ± 6 nm; PDI N/P:3 ([1]; Formulation F4, N/P 3): 0.068; Size (nm) N/P:3 ([1]; Formulation F4, N/P 3): 73 ± 0 nm; EE (%) N/P:3 ([2]; Formulation F1, N/P 3): 98%; EE (%) N/P:3 ([2]; Formulation F2, N/P 3): 98%; EE (%) N/P:3 ([2]; Formulation F3, N/P 3): 94%; EE (%) N/P:3 ([2]; Formulation F4, N/P 3): 98%; Organ Mean Total Flux Lung (mouse organs; Mouse 1, dose 0.3 mg/kg): 39.9 p/s (×10^6); Organ Mean Total Flux Muscle (mouse organs; Mouse 1, dose 0.3 mg/kg): 18.4 p/s (×10^6); Organ Mean Total Flux Pancreas (mouse organs; Mouse 1, dose 0.3 mg/kg): 5.0 p/s (×10^6); Organ Mean Total Flux Spleen (mouse organs; Mouse 1, dose 0.3 mg/kg): 17.6 p/s (×10^6) |
